Earlier results as cited in patent US20110251195A1, “ADRB2 GENE PO[…] INTRAOCULAR PRESSURE RESPONSE TO TOPICAL BETA-BLOCKERS” (Marshfield Clinic, priority 2008, published 2011).

System: ADRB2 gene product (Gln27 / Glu27)
Details: Glu27 versus Gln27 ADRB2 variant

Q: With `CC(C)NCC(O)c1ccc(O)c(O)c1` (stereo not shown) [isoprenaline] as the molecule, how does the “fold greater isoprenaline concentration necessary to down-regulate Glu27 to the same extent as Gln27” value read?
A: 60 fold
